Article PMC11967169 (RSC Advances, 2025)

Biological target: hepatocyte growth factor receptor (MET), exon 14 skipped (Homo sapiens, UniProt P08581, DEL963-1009)
Assay: PROTAC degradation of METex14Δ-GFP by live cell imaging in HEK293
Type: cell-based

- DC50: 2610 ± 115 nM
Structure (SMILES): COc1cc2c(Oc3ccc(NC(=O)C4(C(=O)Nc5ccc(F)cc5)CC4)cc3F)ccnc2cc1OCCCOCCCOCCC(=O)N[C@H](C(=O)N1C[C@H](O)C[C@H]1C(=O)NCc1ccc(-c2scnc2C)cc1)C(C)(C)C
